Structures are written as SMILES.

This experiment addresses wt tetrameric Lac repressor (tet. LacR) (Escherichia coli, UniProt P03023). Briefly: band shift of operator DNA, IPTG titration, non-linear regression. The format is binding.

Sequence of wt tetrameric Lac repressor (tet. LacR) (P03023 whole entry): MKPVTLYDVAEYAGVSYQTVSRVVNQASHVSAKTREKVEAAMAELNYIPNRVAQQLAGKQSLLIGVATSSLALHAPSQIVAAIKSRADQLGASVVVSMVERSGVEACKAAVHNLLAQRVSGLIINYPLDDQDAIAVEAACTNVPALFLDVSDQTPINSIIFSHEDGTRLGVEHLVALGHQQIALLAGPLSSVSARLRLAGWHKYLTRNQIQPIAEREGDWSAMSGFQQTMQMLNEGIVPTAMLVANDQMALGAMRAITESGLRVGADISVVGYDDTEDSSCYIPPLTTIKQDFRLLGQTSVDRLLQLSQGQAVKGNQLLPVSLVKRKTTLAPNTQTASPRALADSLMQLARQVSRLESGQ

Turning to `CC(C)S[C@@H]1O[C@H](CO)[C@H](O)[C@H](O)[C@H]1O` [IPTG], the Kd amounted to 8.2 µM.

Source of the values: publication PMC1345695 (Nucleic Acids Research, 2006).
